Test results published in the supplement of paper PMC4862054.

Legend:
Conditions in all cases: incubation time: 72 h
CAL-120 [1] = assay: normalised viability (% of control), CellTiter-Blue; higher = more viable cells (about 100 = DMSO control)
Description: (§1)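 DSRT, CellTiter-Blue viability, 72 h incubation. Signal is normalised to DMSO and benzethonium chloride controls. Value is the normalised response at dose 3.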

MFM-223 [2] = assay: as above
Description: as §1

DU-4475 = assay: as above
Description: as §1

SK-BR-3 = assay: as above
Description: as §1

MDA-MB-453 [3] = assay: as above
Description: as §1

CAL-85-1 [4] = assay: as above
Description: as §1

CAL-148 [5] = assay: as above
Description: as §1

HCC1143 [6] = assay: as above
Description: as §1

MDA-MB-436 = assay: as above
Description: as §1

Hs578T = assay: as above
Description: as §1

BT-474 [7] = assay: as above
Description: as §1

HDQ-P1 = assay: as above
Description: as §1

CAL-51 = assay: as above
Description: as §1

HCC1599 = assay: as above
Description: as §1

MDA-MB-231 [8] = assay: as above
Description: as §1

HCC1937 [9] = assay: as above
Description: as §1

BT-549 = assay: as above
Description: as §1

MDA-MB-468 = assay: as above
Description: as §1

CAL-120 [10] = assay: drug sensitivity score (DSS), CellTox Green (DSS (AUC-based score)); higher = stronger drug effect (viability inhibition or cytotoxicity); extreme values may be limits of the assay
Procedure, shortened: (§2)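 In 384-well plates, compound was laid out at 5 concentrations in 10-fold steps over a 10,000-fold range specific to each compound, and breast cancer cell lines were seeded on top in 20 µl suspension for a 72 h incubation. CellTox Green fluorescence and then CellTiter-Glo luminescence were read, and each plate was normalised to 0.1 % DMSO and a positive kill control. The drug sensitivity score was calculated from the area under the fitted dose-response curve.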

MFM-223 [11] = assay: as above
Procedure, shortened: as §2

MDA-MB-453 [12] = assay: as above
Procedure, shortened: as §2

CAL-85-1 [13] = assay: as above
Procedure, shortened: as §2

CAL-148 [14] = assay: as above
Procedure, shortened: as §2

HCC1143 [15] = assay: as above
Procedure, shortened: as §2

BT-474 [16] = assay: as above
Procedure, shortened: as §2

MCF-10A = assay: as above
Procedure, shortened: as §2

MDA-MB-231 [17] = assay: as above
Procedure, shortened: as §2

HCC1937 [18] = assay: as above
Procedure, shortened: as §2

Compound	drug sensitivity score (CAL-120 [10])	drug sensitivity score (MFM-223 [11])	drug sensitivity score (MDA-MB-453 [12])	drug sensitivity score (CAL-85-1 [13])	drug sensitivity score (CAL-148 [14])	drug sensitivity score (HCC1143 [15])	drug sensitivity score (BT-474 [16])	drug sensitivity score (MCF-10A)	drug sensitivity score (MDA-MB-231 [17])	drug sensitivity score (HCC1937 [18])	normalised viability (CAL-120 [1]; 100 nM)	normalised viability (MFM-223 [2]; 100 nM)	normalised viability (DU-4475; 10 nM)	normalised viability (SK-BR-3; 100 nM)	normalised viability (MDA-MB-453 [3]; 10 nM)	normalised viability (CAL-85-1 [4]; 10 nM)	normalised viability (CAL-148 [5]; 10 nM)	normalised viability (HCC1143 [6]; 100 nM)	normalised viability (MDA-MB-436; 100 nM)	normalised viability (Hs578T; 100 nM)	further results
Oc1ccc2c(c1)CC[C@H](c1ccccc1)[C@@H]2c1ccc(OCCN2CCCC2)cc1 [Lasofoxifene]	0	0	0	3.43	0	0	0	0	0	0	–	–	–	–	–	–	–	–	–	–	normalised viability (CAL-120 [1]; 10 nM): 86.9%; normalised viability (MFM-223 [2]; 10 nM): 82.8%; normalised viability (DU-4475; 1 nM): 98.7%; normalised viability (SK-BR-3; 10 nM): 83.2%; normalised viability (MDA-MB-453 [3]; 1 nM): 108%; normalised viability (CAL-85-1 [4]; 1 nM): 94.4%; normalised viability (CAL-148 [5]; 1 nM): 101%; normalised viability (HCC1143 [6]; 10 nM): 90.7%; normalised viability (MDA-MB-436; 10 nM): 85.3%; normalised viability (Hs578T; 10 nM): 84.3%; normalised viability (BT-474 [7]; 10 nM): 122%; normalised viability (HDQ-P1; 1 nM): 107%; normalised viability (CAL-51; 1 nM): 95.1%; normalised viability (HCC1599; 10 nM): 104%; normalised viability (MDA-MB-231 [8]; 10 nM): 90.1%; normalised viability (HCC1937 [9]; 10 nM): 87.2%; normalised viability (BT-549; 10 nM): 113%; normalised viability (MDA-MB-468; 10 nM): 87.2%
Cc1ccc(NC(=O)c2ccc(CN3CCN(C)CC3)cc2)cc1Nc1nc(-c2cccnc2)cs1 [Masitinib]	0	0	0	0	0	0	0	0	5.53	0	82.3%	101%	102%	80.7%	103%	98.1%	89.8%	83%	71.6%	86.6%	normalised viability (BT-474 [7]; 100 nM): 115%; normalised viability (HDQ-P1; 10 nM): 116%; normalised viability (CAL-51; 10 nM): 100%; normalised viability (HCC1599; 100 nM): 109%; normalised viability (MDA-MB-231 [8]; 100 nM): 88.7%; normalised viability (HCC1937 [9]; 100 nM): 107%; normalised viability (BT-549; 100 nM): 88.3%; normalised viability (MDA-MB-468; 100 nM): 103%
O=C(Nc1cccnc1)N1CCC(Cc2cccc(Oc3ccc(C(F)(F)F)cn3)c2)CC1 [PF-3845]	0	0	0	0	0	0	0	0	0	0	96.5%	90.1%	104%	104%	105%	92.2%	86.9%	89.9%	113%	122%	normalised viability (BT-474 [7]; 100 nM): 116%; normalised viability (HDQ-P1; 10 nM): 116%; normalised viability (CAL-51; 10 nM): 101%; normalised viability (HCC1599; 100 nM): 99.6%; normalised viability (MDA-MB-231 [8]; 100 nM): 128%; normalised viability (HCC1937 [9]; 100 nM): 107%; normalised viability (BT-549; 100 nM): 111%; normalised viability (MDA-MB-468; 100 nM): 102%
Cc1[nH]c2ccccc2c1CCNCc1ccc(/C=C/C(=O)NO)cc1 [Panobinostat]	13.8	6.53	4.41	17.3	20.9	6.53	14.6	1.6	19.9	14.2	–	–	–	–	–	–	–	–	–	–	normalised viability (CAL-120 [1]; 10 nM): 59.3%; normalised viability (MFM-223 [2]; 10 nM): 101%; normalised viability (DU-4475; 1 nM): 115%; normalised viability (SK-BR-3; 10 nM): 52.3%; normalised viability (MDA-MB-453 [3]; 1 nM): 110%; normalised viability (CAL-85-1 [4]; 1 nM): 99.3%; normalised viability (CAL-148 [5]; 1 nM): 102%; normalised viability (HCC1143 [6]; 10 nM): 86.7%; normalised viability (MDA-MB-436; 10 nM): 96.4%; normalised viability (Hs578T; 10 nM): 86.8%; normalised viability (BT-474 [7]; 10 nM): 97.4%; normalised viability (HDQ-P1; 1 nM): 102%; normalised viability (CAL-51; 1 nM): 116%; normalised viability (HCC1599; 10 nM): 84.7%; normalised viability (MDA-MB-231 [8]; 10 nM): 94.6%; normalised viability (HCC1937 [9]; 10 nM): 69.7%; normalised viability (BT-549; 10 nM): 106%; normalised viability (MDA-MB-468; 10 nM): 76.8%
COCC1(CO)C(=O)C2CCN1CC2 (stereo unspecified) [Prima-1 Met]	0	0	0	0	0	0	0	0	0	1.24	91.5%	87.6%	99.2%	94.2%	106%	91.4%	90.2%	74.8%	101%	82.6%	normalised viability (BT-474 [7]; 100 nM): 104%; normalised viability (HDQ-P1; 10 nM): 91.2%; normalised viability (CAL-51; 10 nM): 93.9%; normalised viability (HCC1599; 100 nM): 122%; normalised viability (MDA-MB-231 [8]; 100 nM): 91.3%; normalised viability (HCC1937 [9]; 100 nM): 118%; normalised viability (BT-549; 100 nM): 79.3%; normalised viability (MDA-MB-468; 100 nM): 106%
CNC(=O)c1cc(Oc2ccc(NC(=O)Nc3ccc(Cl)c(C(F)(F)F)c3)c(F)c2)ccn1 [Regorafenib]	0	0	0	0	0	0	0	0	0	3.47	87.7%	92.6%	104%	89.3%	110%	97.1%	93.6%	74.6%	121%	98.4%	normalised viability (BT-474 [7]; 100 nM): 98.3%; normalised viability (HDQ-P1; 10 nM): 89.6%; normalised viability (CAL-51; 10 nM): 101%; normalised viability (HCC1599; 100 nM): 135%; normalised viability (MDA-MB-231 [8]; 100 nM): 75.3%; normalised viability (HCC1937 [9]; 100 nM): 90.4%; normalised viability (BT-549; 100 nM): 112%; normalised viability (MDA-MB-468; 100 nM): 107%
CO[C@H]1C[C@@H]2CC[C@@H](C)[C@@](O)(O2)C(=O)C(=O)N2CCCC[C@H]2C(=O)O[C@H]([C@H](C)C[C@@H]2CC[C@@H](OP(C)(C)=O)[C@H](OC)C2)CC(=O)[C@H](C)/C=C(\C)[C@@H](O)[C@@H](OC)C(=O)[C@H](C)C[C@H](C)/C=C/C=C/C=C/1C [Ridaforolimus]	0	0	0	0	0	0	0	0	0.968	0	–	–	–	–	–	–	–	–	–	–	normalised viability (CAL-120 [1]; 10 nM): 48.2%; normalised viability (MFM-223 [2]; 10 nM): 45.2%; normalised viability (DU-4475; 1 nM): 78.2%; normalised viability (SK-BR-3; 10 nM): 48.4%; normalised viability (MDA-MB-453 [3]; 1 nM): 44.5%; normalised viability (CAL-85-1 [4]; 1 nM): 67.4%; normalised viability (CAL-148 [5]; 1 nM): 60.1%; normalised viability (HCC1143 [6]; 10 nM): 56.4%; normalised viability (MDA-MB-436; 10 nM): 85.6%; normalised viability (Hs578T; 10 nM): 50.4%; normalised viability (BT-474 [7]; 10 nM): 60.7%; normalised viability (HDQ-P1; 1 nM): 110%; normalised viability (CAL-51; 1 nM): 79%; normalised viability (HCC1599; 10 nM): 91.8%; normalised viability (MDA-MB-231 [8]; 10 nM): 71.9%; normalised viability (HCC1937 [9]; 10 nM): 58.9%; normalised viability (BT-549; 10 nM): 62.4%; normalised viability (MDA-MB-468; 10 nM): 61.2%
